Results reported in patent US20150290105A1, “COMPOSITION COMPRISING SYRINGARESINOL FOR IMPROVING THE SKIN” (AMOREPACIFIC CORPORATION, priority 2011, published 2015).

Columns and labels:
[1] = Skin whitening effect when applied to UVB-tanned human skin; type: in vivo; settings: 1% applied on upper arm after UVB, 10 weeks, 12 male subjects
Experimental: First, opaque tapes having holes of 1.5 cm in diameter were attached on the upper arms of 12 healthy male subjects and UVB of about 1.5-2 times the minimal erythemal dose was irradiated to each subject to induce skin tanning. […] Then, the change was monitored for 10 weeks. The color of the skin was measured with 1-week interval using the CR2002 colorimeter (Minolta, Japan). The change in skin color (ΔL*) between the time when the test substance was applied and the time when the test was completed was calculated according to Equation 3. Skin whitening effect is evaluated by comparing the ΔL* of the part where the test substance was applied with that of the control part. A ΔL* value of about 2 can be interpreted as distinct skin whitening effect and one about 1.5 can be evaluated as positive skin whitening effect.
ΔL*=(L* when test was completed)−(L* when test substance was applied) [Equation 3]

SIRT1 = SIRT1 expression promoting effect in human keratinocytes; type: cell-based; settings: HaCaT cells, 20, 50 or 100 μM, 24 hours, FIG. 3
Experimental: Human keratinocyte HaCaT cells or human fibroblast HDF cells were cultured under the condition of 37° C. and 5% CO2 in DMEM ((Gibco 1210-0038)) containing 10% fetal bovine serum.
The cultured cells were treated with syringaresinol dissolved in DMSO at a concentration of 20, 50 or 100 μM for 24 hours. Separately from this, the cells were treated with DMSO of 1/1000 of the volume of the culture medium as a negative control. After treating with the test substance, the cells were washed twice with cold PBS and RNA was extracted using TRIzol reagent (Invitrogen). Then, cDNA was synthesized using 1 μg/μL of the extracted RNA and a reverse transcription system (Promega). The expression pattern of the SIRT1 and GAPDH genes was monitored using the synthesized cDNA and predesigned primers and probes (Applied Biosystems; SIRT1, Hs01009006_ml; GAPDH, Hs99999905_ml). PCR reaction and analysis were carried out using the Rotor-Gene 3000 system (Corbett Research, Sydney, Australia). The result is shown in FIG. 3 (keratinocytes) and FIG. 4 (fibroblasts).

collagen IV = experiment: UV-induced collagen breakdown in human keratinocytes (western blot); type: cell-based; settings: HaCaT cells, 50 μM, UVB 30 mJ/cm^2, FIG. 6
Experimental: (§1) Human keratinocyte HaCaT cells were cultured in substantially the same manner as in Test Example 10.
(§2) The cultured cells were treated with trypsin to obtain a single-cell suspension. Then, the cells were distributed in a 6-well plate, with 2×10^5 cells per well, and cultured for 24 hours. Subsequently, after replacing the medium with DMEM not containing fetal bovine serum and culturing again for 24 hours, the cells were treated with 50 μM syringaresinol dissolved in DMSO. After treating for 24 hours, the cells were washed with PBS and UVB of 30 mJ/cm^2 was irradiated in PBS. After discarding the PBS, the cells were added to a medium containing syringaresinol of the same concentration. As a control group, the cells were cultured in the same manner without treating with syringaresinol. […] Then, after centrifuging at 4° C. for 10 minutes with 15,000 g, the supernatant was recovered and protein was quantitated using Bio-Rad Protein Dye ReagentTM. […] Bands on the film were scanned with PowerLook 2100 XL (UMAX) and analyzed with the image-analyzing program ImageMaster 2D Elite (Amersham Bioscience).

[2] = tested on: Melanocytes (Mel-Ab cells); experiment: Melanin production inhibiting effect in mouse melanocytes; type: cell-based; settings: Mel-Ab cells, 3 consecutive days; hydroquinone 10 ppm
Experimental: The melanin production inhibiting effect of the syringaresinol obtained in Example was evaluated using mouse melanocytes. First, melanocytes (Mel-Ab cells) derived from C57BL/6 (treated with Dooley et al.'s method) were cultured under the condition of 37° C. and 5% CO2 in Dulbecco's modified Eagle's medium (DMEM) containing 10% fetal bovine serum, 100 nM 12-O-tetradecanoylphorbol-13-acetate and 1 nM cholera toxin. […] After removing the culture medium and washing with PBS, the cells were dissolved with 1 N sodium hydroxide and absorbance was measured at 400 nm. Melanin production inhibiting rate (%) was calculated according to Equation 2 from the measured absorbance. Melanin production inhibiting rate (%)=100−(Absorbance of test substance) /(Absorbance of control substance)×100 [Equation 2]

MMP-9 = experiment: UV-induced MMP-9 expression in human keratinocytes (western blot); type: cell-based; settings: HaCaT cells, 50 μM, UVB 30 mJ/cm^2, FIG. 6
Experimental: as §1, §2

filaggrin = experiment: Filaggrin expression promoting effect in human keratinocytes; type: cell-based; settings: HaCaT cells, FIG. 5
Experimental: as §1
cDNA was synthesized in substantially the same manner as in Test Example 10 and the expression pattern of the filaggrin, involucrin and GAPDH genes was monitored substantially the same manner as in Test Example 10 using the synthesized cDNA and predesigned primers and probes (Applied Biosystems; […]; GAPDH, Hs99999905_ml).

TGF-β1 = TGF-β1 production in fibroblasts (ELISA); type: cell-based, human; settings: HDF cells, 24 hours
Experimental: Human fibroblast HDF cells were cultured in substantially the same manner as in Test Example 10.
The cultured cells were treated with syringaresinol dissolved in DMSO to a concentration of 20, 50 or 100 μM for 24 hours. After 24 hours, the cell culture was recovered.
The quantity of TGF-β1 produced in the recovered cell culture was measured using the Quantikine™ high-sensitivity ELISA kit (R&D Systems, USA) according to the manufacturer's instructions. All the samples required for the measurement of the quantity of TGF-β1 were provided by the kit. First, the recovered cell culture was transferred to a 96-well microplate uniformly coated with TGF-β1 antibody and it was allowed for antigen-antibody reaction to proceed at 37° C. for 1 hour. After removing the cell culture, the wells were washed 3 times with PBS. Then, horseradish peroxidase-conjugated secondary antibody was added to each well and it was allowed for antigen-antibody reaction to proceed for 1 hour. Subsequently, after adding tetramethylbenzidine as a chromogenic substrate to each well, followed by reaction at room temperature for 15 minutes, 1 N sulfuric acid was added to stop the reaction. Then, absorbance was measured at 450 nm using a spectrophotometer. After drawing a standard curve using a standard solution, the TGF-β1 production amount in the cell culture with the test substance added was calculated from the measured absorbance.

COc1cc(C2OCC3C(c4cc(OC)c(O)c(OC)c4)OCC23)cc(OC)c1O (stereo not drawn) [Syringaresinol, syringaresinol]
Change in skin brightness (ΔL*) [1]: 1.98 ± 0.11 | Increase of SIRT1 expression (SIRT1): ≥ 4 times | UV-induced collagen breakdown (collagen IV): inhibits collagen breakdown | Melanin production inhibiting rate (%) [2]: 85.7% | UV-induced MMP-9 expression (MMP-9): inhibiting the UV-induced increase of MMP-9 expression | Expression of filaggrin (filaggrin): increases the expression of filaggrin | TGF-β1 production amount (TGF-β1; 20 μM): 43.3 ± 1.0 | TGF-β1 production amount (TGF-β1; 50 μM): 87.2 ± 4.2 | TGF-β1 production amount (TGF-β1; 100 μM): 92.1 ± 5.6
